{
  "source": "patent US20240082273A1",
  "about": "“NEUROKININ INHIBITORS SUCH AS APREPITANT FOR TREATING NON SMALL CELL LUNG CARCINOMA OR BREAST CANCER WITHOUT MUTATIONS” (priority 2020, published 2024)",
  "key": {"[1]": {"tested_on": "lung cancer cell lines with molecular profile EGFR−/ALK−/ROS1− (A549, H358, H441, H460, H520)", "test": "MTT proliferation, NSCLC cell lines with EGFR−/ALK−/ROS1− profile", "assay_type": "cell-based, human", "details": "for Mean proliferation: 48 hours", "source_text": "EGFR, ALK and ROS1 are key molecular factors that may be used to determine pathological classification, prognosis, therapeutics and behaviour in patients with lung cancer. EGFR, ALK and ROS1 are biomarkers routinely analysed in the clinical practice of the management of patients with NSCLC. NSCLC with molecular profile EGFR-/ALK-/ROS1- presents a better response to treatment with the NK1 inhibitor aprepitant, compared to lung cancer with different profiles (in particular, EGFR+/ALK-/ROS1- and EGFR-/ALK+/ROS1-, in which EGFR and ALK respectively contain mutations relative to their wild type gene). Commercial lines of lung cancer were used as shown in Table 2 together with their molecular profile. The molecular profile of the cancer cell lines was determined by sequencing and can be consulted in the Cancer Cell Line Encyclopaedia database of public access available at the url: https://portals.broadinstitute.org/ccle All cells were cultured in wells under vendor-recommended conditions and exposed to different concentrations of aprepitant for 48 hours. In each case a group of wells of cells were used to which no treatment was applied and which were considered as controls. At 48 hours the number of cells was measured. Eight cell lines of human were used for the study of NK1 inhibitors (Table 3). All of them were maintained in culture in their respective culture media (Gibco,Thermo Fisher Scientific) supplemented with 10% foetal bovine serum (FBS) (Gibco, Thermo Fisher Scientific), 2 mM L-Glutamine (Gln) (Sigma-Aldrich, Merk), and […] and […] Gibco, Thermo Fisher Scientific) in a humidified incubator at 37° C. and 5% CO2. Cell culture media used are Dulbecco's Modified Eagle Medium (DMEM), and RPMI Medium 1640 (RPMI-1640). To measure cell viability, the cytotoxicity of drugs in culture was evaluated using the 3-(4,5-Dimethyl-2-thiazolyl)-2,5-diphenyl-2H-tetrazolium bromide (MTT) reduction assay. This assay assesses cell viability through the indirect measurement of the activity of reductases that convert yellow soluble MTT into purple insoluble formazan salts. As MTT can only be reduced when these enzymes are active, the reaction is used as an indicator of the cell metabolic competence and, therefore, of viability. A variable number of cells (depending on the cell line) were seeded in 96 multi-well plates and grown during 24 hours. The following day, the culture medium was aspirated and fresh culture medium with the drug dissolved was added to the wells. After 24 hours or 48 hours cell viability was measurement by adding 10 μl of a 5 mg/ml MTT solution (M5655; Sigma-Aldrich) and 100 μl of HCl 0.01M-SDS 10% solution 4 hours later. After 24 hours, the absorbance was measured at 595 nm, using a multi-well plate reader (iMark, Bio-rad). Each condition was tested 5 times, obtaining 5 values of absorbance. All sample measurements were corrected using the blank (culture medium without cells) mean absorbance value, and normalized to positive control to determinate relative cell viability for each condition at 24 and 48 hours."}, "[2]": {"tested_on": "human primary triple negative breast carcinoma (ER−/PR−/HER2−) tumour cells", "test": "Primary triple negative breast carcinoma xenograft mouse model", "assay_type": "in vivo, nu/nu Balb/c nude mice", "details": "for Mean proliferation: 28 days", "method": "Immunocompromised female mice, 5-6 weeks of age were used, nu/nu Balb/c nude mice, provided by Harlan Iberica Barcelona (Spain). They were kept at 24° C. and in sterile conditions with food and water “ad libitum”. They were injected with 2×10^7 tumour cells, corresponding to human primary triple negative breast carcinoma (i.e. tumour cells having a ER−/PR−/HER2− molecular profile) in 200 μl of PBS subcutaneous route. The tumour size was measured and the mice were evaluated for their state of health and weight daily. The mice were randomised in groups when the tumours reached a volume of 75 mm^3. One of the groups was treated with 200 μl of placebo (control group) and the eight remaining groups with doses of 1 to 100 mg per kilogram of weight and day of the NK1 inhibitor aprepitant. Five animals were treated per group, during 28 days. All the mice were sacrificed at the end of the experiment."}, "[3]": {"tested_on": "breast cancer cell lines ER−/PR−/HER2− (MDAMB231, MDAMB435, MDAMB468)", "test": "MTT proliferation, breast cancer cell lines ER−/PR−/HER2−", "assay_type": "cell-based, human", "details": "for Mean proliferation: 48 hours", "method": "All cells were cultured in wells under vendor-recommended conditions and exposed to different concentrations of aprepitant for 48 hours. In each case a group of wells of cells were used to which no treatment was applied and which were considered as controls. At 48 hours the number of cells was measured. To measure cell viability, the cytotoxicity of drugs in culture was evaluated using the 3-(4,5-Dimethyl-2-thiazolyl)-2,5-diphenyl-2H-tetrazolium bromide (MTT) reduction assay. This assay assesses cell viability through the indirect measurement of the activity of reductases that convert yellow soluble MTT into purple insoluble formazan salts. As MTT can only be reduced when these enzymes are active, the reaction is used as an indicator of the cell metabolic competence and, therefore, of viability. A variable number of cells (depending on the cell line) were seeded in 96 multi-well plates and grown during 24 hours. The following day, the culture medium was aspirated and fresh culture medium with the drug dissolved was added to the wells. After 24 hours or 48 hours cell viability was measurement by adding 10 μl of a 5 mg/ml MTT solution (M5655; Sigma-Aldrich) and 100 μl of HCl 0.01M-SDS 10% solution 4 hours later. After 24 hours, the absorbance was measured at 595 nm, using a multi-well plate reader (iMark, Bio-rad). Each condition was tested 5 times, obtaining 5 values of absorbance. All sample measurements were corrected using the blank (culture medium without cells) mean absorbance value, and normalized to positive control to determinate relative cell viability for each condition at 24 and 48 hours."}, "[4]": {"details": "daily dosing from 625 to 875 mg; cited from earlier work"}},
  "data": [
    {"smiles": "C[C@@H](O[C@H]1OCCN(Cc2nc(=O)[nH][nH]2)[C@H]1c1ccc(F)cc1)c1cc(C(F)(F)F)cc(C(F)(F)F)c1", "note": "[Aprepitant]", "values": [
      {"measurement": "inhibition at 5 µM", "setting": "[1]; Homo sapiens, concentration of 5 μM, in most cell lines (FIG. 3)", "value": "~20", "unit": "%"},
      {"measurement": "inhibition at 20 µM", "setting": "[1]; Homo sapiens, concentration of 20 μM (FIG. 3), read-out: growth inhibition", "value": 60, "unit": "%"},
      {"measurement": "Mean proliferation", "setting": "[1]; aprepitant 1 μM", "value": 98.09},
      {"measurement": "Mean proliferation", "setting": "[1]; aprepitant 3 μM", "value": 94.71},
      {"measurement": "Mean proliferation", "setting": "[1]; aprepitant 5 μM", "value": 72.82},
      {"measurement": "Mean proliferation", "setting": "[1]; aprepitant 10 μM", "value": 59.95},
      {"measurement": "Mean proliferation", "setting": "[1]; aprepitant 20 μM", "value": 42.37},
      {"measurement": "Mean proliferation", "setting": "[1]; aprepitant 30 μM", "value": 30.66},
      {"measurement": "Mean proliferation", "setting": "[1]; aprepitant 40 μM", "value": 18.72},
      {"measurement": "Mean proliferation", "setting": "[1]; aprepitant 50 μM", "value": 4.05},
      {"measurement": "Mean proliferation", "setting": "[1]; aprepitant 60 μM", "value": 4.40},
      {"measurement": "proliferation compared to control", "setting": "[1]; concentration of 5 μM, in most cell lines (FIG. 3)", "value": 80, "unit": "%"},
      {"measurement": "response to treatment versus EGFR+/ALK−/ROS1− and EGFR−/ALK+/ROS1− profiles", "setting": "[1]; in vitro, Table 4 and FIG. 2", "value": "clearly improved response"},
      {"measurement": "Mean proliferation", "setting": "[2]; aprepitant 1 mg/kg/day", "value": 104},
      {"measurement": "Mean proliferation", "setting": "[2]; aprepitant 3 mg/kg/day", "value": 108},
      {"measurement": "Mean proliferation", "setting": "[2]; aprepitant 5 mg/kg/day", "value": 112},
      {"measurement": "Mean proliferation", "setting": "[2]; aprepitant 8 mg/kg/day", "value": 110},
      {"measurement": "Mean proliferation", "setting": "[2]; aprepitant 10 mg/kg/day", "value": 99},
      {"measurement": "Mean proliferation", "setting": "[2]; aprepitant 20 mg/kg/day", "value": 76},
      {"measurement": "Mean proliferation", "setting": "[2]; aprepitant 30 mg/kg/day", "value": 65},
      {"measurement": "Mean proliferation", "setting": "[2]; aprepitant 40 mg/kg/day", "value": 61},
      {"measurement": "Mean proliferation", "setting": "[2]; aprepitant 50 mg/kg/day", "value": 56},
      {"measurement": "Mean proliferation", "setting": "[2]; aprepitant 60 mg/kg/day", "value": 54},
      {"measurement": "Mean proliferation", "setting": "[2]; aprepitant 70 mg/kg/day", "value": 50},
      {"measurement": "Mean proliferation", "setting": "[2]; aprepitant 80 mg/kg/day", "value": 50},
      {"measurement": "triple negative human primary breast carcinoma proliferation in a xenograft model", "setting": "[2]; dose-dependent fashion", "value": "reduces"},
      {"measurement": "inhibition at 20 µM", "setting": "[3]; Homo sapiens, concentration of 20 μM (FIG. 5), read-out: growth inhibition", "value": "~60", "unit": "%"},
      {"measurement": "Mean proliferation", "setting": "[3]; aprepitant 0.3 μM", "value": 98.63},
      {"measurement": "Mean proliferation", "setting": "[3]; aprepitant 1 μM", "value": 97.94},
      {"measurement": "Mean proliferation", "setting": "[3]; aprepitant 3 μM", "value": 98.98},
      {"measurement": "Mean proliferation", "setting": "[3]; aprepitant 10 μM", "value": 74.02},
      {"measurement": "Mean proliferation", "setting": "[3]; aprepitant 20 μM", "value": 42.89},
      {"measurement": "Mean proliferation", "setting": "[3]; aprepitant 30 μM", "value": 24.11},
      {"measurement": "Mean proliferation", "setting": "[3]; aprepitant 40 μM", "value": 7.53},
      {"measurement": "Mean proliferation", "setting": "[3]; aprepitant 50 μM", "value": 1.89},
      {"measurement": "Mean proliferation", "setting": "[3]; aprepitant 60 μM", "value": 6.77},
      {"measurement": "triple negative breast carcinoma proliferation in culture relative to ER+/PR+/HER2+, ER−/PR−/HER2+ and ER+/PR+/HER2−", "setting": "[3]; dose dependent", "value": "reduces"},
      {"measurement": "plasma trough level", "setting": "[4]", "value": 2.65, "unit": "µg/mL"},
      {"measurement": "plasma trough level (equivalent)", "setting": "[4]", "value": 5, "unit": "µM"}
    ]}
  ]
}
